Reference: publication PMC11790958, “Molecular mechanism of condensin I activation by KIF4A” (The EMBO Journal, 2024)
Residues, ends and D or L forms follow the SMILES beside them. No end group written: not given here. *: point of attachment. 5FAM = O=C1OC2(c3ccc(O)cc3Oc3cc(O)ccc32)c2ccc(C(=O)*)cc21; 5‑FAM = 5-carboxyfluorescein label

Experiments:
condensin I [1] = test: ATPase activity assay (EnzCheck phosphate assay), basal; type: biochemical, human; details: for effect of peptide on ATPase activity of CI: 50 nM CI
Experimental: ATPase assays were performed based on the method described previously (Voulgaris and Gligoris, [2019]) using the EnzCheck phosphate assay kit (Invitrogen). Condensin I complexes were used at a final concentration of 50 nM, while HAWK subunits were used at 100 nM and peptides were used at 50 μM. Basal ATPase assays were performed with final salt concentration of 100 mM KCl. DNA titrations were performed with 50 bp dsDNA annealed by heating to 98 degrees and slowly cooling in annealing buffer (10 mM Tris pH 7.5, 50 mM NaCl, 1 mM EDTA).
Plate was read with a POLARstar Omega plate reader (BMG).

NCAPG [2] = molecular target: T1, NCAPG (Homo sapiens, UniProt Q9BPX3); test: Fluorescence polarisation binding assay of 5-FAM peptides with NCAPG; details: FP, 100 nM 5-FAM peptide; Kd not fit
T1 construct: ystrep (Strep tag); made in house; host or cells: Sf9 insect cells (baculovirus)
Experimental: (§1) Fluorescence polarisation binding assays were performed by mixing 100 nM of 5-FAM labelled peptide (Reagents and Tools Table) with indicated concentration of protein in FP buffer (20 mM HEPES pH 8, 150 mM KCl, 2.5 mM MgCl, 5% glycerol, 1 mM DTT) and incubated at room temperature for 15 min before reading the plate with a POLARstar Omega plate reader (BMG). The plate was read three times at 5 min intervals to ensure samples reached equilibrium and three technical replicates were performed, setting up a new plate, with distinct protein aliquot in each case. Data was analysed and plotted in Graphpad Prism and Kd fit using the following: FP=FPmax/2[Pep]([C]+[Pep]+Kd)−([C]+[Pep]+Kd)^2−4.[C].[Pep] Where [C] and [Pep] are the concentration, in μM, of condensin and 5-FAM labelled peptide respectively, FPmax the maximum change in fluorescence polarisation in mP and Kd is the equilibrium dissociation constant. Fit curves are plotted, with standard deviation.

CI NdelH, D2delC = test: Fluorescence polarisation competition assay, 5-FAM NCAPH peptide and CI NdelH, D2delC; type: binding, human; details: 100 nM 5-FAM-NCAPH55-77 with 4 μM CID2ΔC,NΔH
Experimental: FP competition assays were performed for NCAPD2 peptide, using a fixed concentration of 100 nM of F-NCAPD2-C1376-1398 and 6 μM of NCAPG, in the presence or absence of 10 μM KIF4A WT1206-1228 or KIF4A Mut1206-1228 peptide. Similar assays were performed for NCAPH2 peptide, using a fixed concentration of 100 nM of F-N-NCAPH55-77 and 4 μM CI NdelH, D2delC, in the presence or absence of 100 μM of KIF4A WT1206-1228 or KIF4A Mut1206-1228 peptide.
(§2) Background was determined by measuring 100 nM of F-NCAPD2-C1376-1398 or F-N-NCAPH55-77 in the presence of peptide buffer (20 mM HEPES pH 8), KIF4A WT1206-1228 or KIF4A Mut1206-1228 peptide, and subtracted from each measurement. Assay was performed with three technical repeats, setting up a new plate with distinct protein aliquot each time, reading the plate three times to ensure equilibrium. Data analysed and plotted using GraphPad Prism.

condensin I [3] = test: Single-molecule loop extrusion assay, fraction of looped DNA; type: biochemical, human; details: for fraction of looped DNA: 0.5 nM condensin I WT, peptide at 1000x
Experimental: (§3) Real-time imaging of the loop extrusion by condensin I was carried out in the aforementioned flow cells as follows. The channel was washed with T50 buffer (40 mM Tris-HCl pH 8.0, 50 mM NaCl, 0.2 mM EDTA), incubated with 1 µM Streptavidin in T50 buffer for 2 min and incubated with 5 mg/ml BSA in T50 buffer for 5 min to further reduce unspecific binding of proteins to the surface. The excess Streptavidin and BSA were washed thoroughly with T50 buffer. Lambda DNA biotinylated at both ends was introduced to the channel at a flow rate of 2 µl/min facilitating surface attachment through the streptavidin–biotin binding. The flow was adjusted and kept constant with a syringe pump attached to the outlet of the flow cell. Excess DNA was washed thoroughly with T50 buffer.
The surface attached DNA molecules were imaged in the imaging buffer (40 mM Tris-HCl pH 7.5, 2 mM Trolox, 30 mM D-glucose, 50 mM Potassium Glutamate (L-Glutamic acid monopotassium salt monohydrate), 2.5 mM MgCl2, 1 mg/ml BSA, 1 mM TCEP, 2.5 mM ATP, 100 nM Sytox Orange, 30 mg/ml Glucose Oxidase (15 U/ml), 20 mg/ml Catalase (1000 U/ml)). The imaging buffer supplied with used condensin I variant was introduced into the channel at a flow rate of 10 µl/min for 100 s and the flow was stopped afterward. For the activity assay comparing condensin I WT and condensin I ΔNCAPG 1 nM of protein, for the activity assay comparing condensin I WT and condensin I WT supplied with KIF4A peptide 0.5 nM of protein and 1000× of the KIF4A peptide, for the analysis of loop extrusion rate 0.75 nM–3 nM of protein (in the case of condensin I WT supplied with KIF4A peptide, correspondingly 1000× of KIF4A peptide) was used.
Region of interests (ROIs) containing a single Lambda DNA molecule were chosen manually and annotated using the tools provided by the Python package Napari. For a single loop extrusion experiment, a field of contains ~100–200 DNA strands. Only the strands that were tethered at both ends from the beginning to the end of the data acquisition were considered for the analysis. Each of the DNA strands were manually analysed whether they form at least one loop during an acquisition time of 1000 s, including the initial 100 s of flow. The “fraction of looped DNA” (Fig. 4B,C) was defined as the ratio of the number of the DNA strands which form at least one loop to the total number of DNA strands. This quantity was taken as a measure for the activity of the protein. […] (For 1 nM condensin I WT 4, for 1 nM condensin I ΔNCAPG 10, for 0.5 nM condensin I WT 3, For 0.5 nM condensin I WT supplied with 0.5 µM KIF4A three independent experiments were performed and analysed.) The error bars in the Fig. 4 are given by the standard deviation of these datasets. […]

condensin I [4] = test: Single-molecule loop extrusion assay, loop extrusion rate; type: biochemical, human; details: without flow, 0.75 nM-3 nM protein, peptide at 1000x
Experimental: as §3, with “The flow was adjusted and kept constant with a syringe pump attached to the outlet of the flow cell. Excess DNA was washed thoroughly with T50 buffer.” left out
ROIs with a DNA strand that formed a loop were cropped and saved in TIFF format for further analysis. […] The kymographs were built by summing the fluorescence intensity for 11 pixels along the line centred around the DNA axis from the median filtered images. […]
For the determination of the loop extrusion rate, each line in the kymograph was split into three regions: “Up”, “Loop” and “Down” (Fig. 4D). For this, first the loop region was determined as follows: Using the “find_peaks” function from the package signal from the Python module scipy local intensity maxima in each line of the kymograph was determined. […] The loop extrusion rate in Fig. 4G was determined by fitting a linear function f(x) = kx + c to the initial 5 s of the loop growth curve. […]

NCAPG [5] = molecular target: T1, NCAPG; test: Fluorescence polarisation competition assay, 5-FAM NCAPD2 peptide and NCAPG; type: binding; details: 100 nM 5-FAM-NCAPD2_1376-1398, 10 μM competing peptide, mean ± SD
Experimental: […] Similar assays were performed for NCAPH2 peptide, using a fixed concentration of 100 nM of F-N-NCAPH55-77 and 4 μM CI NdelH, D2delC, in the presence or absence of 100 μM of KIF4A WT1206-1228 or KIF4A Mut1206-1228 peptide.
as §2

[6] = molecular target: T2, CID2ΔC (condensin I lacking NCAPD2 C-terminal region) (Homo sapiens, UniProt Q9BPX3); test: Fluorescence polarisation binding assay of 5-FAM peptides with CID2ΔC; details: FP, 100 nM 5-FAM peptide titrated with CID2ΔC, three technical replicates, ± standard error
T2 construct: made in house; host or cells: Sf9 insect cells (baculovirus)
Experimental: as §1

## KIF4Amut peptide (PGKKAAAAGAAATSFFSGCSPIE)
Condensin I [1]; CI D2delC + peptide, replicate 1
  Fit rates: 10.29 ATPase per molecule, per minute
Condensin I [1]; CI D2delC + peptide, replicate 2
  Fit rates: 11.11 ATPase per molecule, per minute
Condensin I [1]; CI D2delC + peptide, replicate 3
  Fit rates: 10.2 ATPase per molecule, per minute
Condensin I [1]; CI D2delC + peptide, replicate 4
  Fit rates: 15.62 ATPase per molecule, per minute
Condensin I [1]; CI D2delC + peptide, replicate 5
  Fit rates: 27.72 ATPase per molecule, per minute
Condensin I [1]; CI NdelH + peptide, replicate 1
  Fit rates: 29.41 ATPase per molecule, per minute
Condensin I [1]; CI NdelH + peptide, replicate 2
  Fit rates: 35.68 ATPase per molecule, per minute
Condensin I [1]; CI NdelH + peptide, replicate 3
  Fit rates: 31.03 ATPase per molecule, per minute
Condensin I [1]; CI NdelH D2delC + peptide, replicate 1
  Fit rates: 28.18 ATPase per molecule, per minute
Condensin I [1]; CI NdelH D2delC + peptide, replicate 2
  Fit rates: 29.84 ATPase per molecule, per minute
Condensin I [1]; CI NdelH D2delC + peptide, replicate 3
  Fit rates: 39.65 ATPase per molecule, per minute
Condensin I [1]; CIWT + peptide, replicate 1
  Fit rates: 10.26 ATPase per molecule, per minute
Condensin I [1]; CIWT + peptide, replicate 2
  Fit rates: 7.215 ATPase per molecule, per minute
Condensin I [1]; CIWT + peptide, replicate 3
  Fit rates: 8.551 ATPase per molecule, per minute
Condensin I [1]; CIWT + peptide, replicate 4
  Fit rates: 10.06 ATPase per molecule, per minute
Condensin I [1]; CIWT + peptide, replicate 5
  Fit rates: 14.77 ATPase per molecule, per minute
Condensin I [1]; CIWT + peptide, replicate 6
  Fit rates: 10.26 ATPase per molecule, per minute

## 5-FAM-FPQNDDEKERLQRRRSRVFDLQF ({5‑FAM}-FPQNDDEKERLQRRRSRVFDLQF) [5-FAM-NCAPH55–77, 5-FAM labelled peptide of NCAPH residues 55-77]
NCAPG [2]
  binding to NCAPG: low affinity
CI NdelH, D2delC
  FP signal without competitor: 37 ± 7 mP
CI NdelH, D2delC; listed as NCAPH peptide
  FP signal without competitor: ~ 35 mP

## PGKKKKRALASNTSFFSGCSPIE [KIF4A1206-1228, KIF4A SLiM peptide, residues 1206-1228, unlabelled]
CI NdelH, D2delC; 100 μM competing peptide, listed as KIF4a peptide
  FP signal on addition of competing peptide: ~ 20 mP
Condensin I [3]; experiment 1
  fraction of looped DNA: 0.9481
Condensin I [3]; experiment 2
  fraction of looped DNA: 1
Condensin I [3]; experiment 3
  fraction of looped DNA: 0.9388
Condensin I [3]; 0.5 nM condensin I, with or without 0.5 μM KIF4A1206-1228 peptide, 1000 s acquisition, mean of n = 3 experiments
  tethers having DNA loops: ~ 96%
Condensin I [4]
  loop extrusion rate compared to CIWT: no significant difference
Condensin I [1]; 50 μM peptide, 3 repeats
  effect of peptide on ATPase activity of CI: small but significant increase
Condensin I [1]; 50 nM CINΔH, 50 μM peptide, 3 repeats
  effect of peptide on ATPase rate of CINΔH: no additional stimulation
Condensin I [1]; 50 nM CINΔH,D3ΔC, 50 μM peptide, 3 repeats
  effect of peptide on ATPase rate of CINΔH,D3ΔC: no additional stimulation

## PGKKAAAAGAAATSFFSGCSPIE [KIF4A mut]
NCAPG [5]
  FP signal on addition of competing peptide: not significantly changed
Condensin I [1]; 50 μM peptide, 3 repeats
  effect of peptide on ATPase activity of CI: no increase in activity

## CC[C@H](C)[C@H](NC(=O)[C@@H]1CCCN1C(=O)[C@H](CO)NC(=O)[C@H](CS)NC(=O)CNC(=O)[C@H](CO)NC(=O)[C@H](Cc1ccccc1)NC(=O)[C@H](Cc1ccccc1)NC(=O)[C@H](CO)NC(=O)[C@@H](NC(=O)[C@H](CC(N)=O)NC(=O)[C@H](CO)NC(=O)[C@H](C)NC(=O)[C@H](CC(C)C)NC(=O)[C@H](C)NC(=O)[C@H](CCCNC(=N)N)NC(=O)[C@H](CCCCN)NC(=O)[C@H](CCCCN)NC(=O)[C@H](CCCCN)NC(=O)[C@H](CCCCN)NC(=O)CNC(=O)[C@@H]1CCCN1C(=O)c1ccc2c(c1)C(=O)OC21c2ccc(O)cc2Oc2cc(O)ccc21)[C@@H](C)O)C(=O)N[C@@H](CCC(=O)O)C(=O)O [5-FAM-KIF4A1206–1228] (5FAM-PGKKKKRALASNTSFFSGCSPIE-OH)
[6]
  Kd: 2800 ± 200 nM
